In a melting point compilation (Tetko et al.; mined from patent text by program, amines drawn as free bases though some values may be those of a salt):

SMILES | melting point [°C]
CN1CCN(Cc2c(-c3ccc4sc(=O)n(C)c4c3)nc3ccccn23)CC1 | 191 to 193
CCCCN1CCC(n2c(=O)[nH]c3ccc(Br)cc32)CC1 | 179 to 181
ClC(=NNc1c(Cl)cc(Cl)cc1Cl)c1ccccc1 | 93 to 94.5
CC1=C(C(=O)OC(C)(C)C)C(c2ccc(Cl)cc2)C(C(=O)OC(C)(C)C)=C(C)N1 | 192
COc1cc(OC)c2c(=O)[nH]c(-c3ccc(OC)c(-c4ccc(C(=O)N(C)C)cc4Cl)n3)nc2c1 | 271 to 272
COc1ccc(NC(=O)N(C)Cc2cccc3c2C(=O)N(C2CCC(=O)NC2=O)C3=O)cc1 (stereo unspecified) | 243 to 245
C=Cc1nc2cc(Br)ccc2o1 | 55 to 56
C[C@@H](Nc1ncnc2[nH]c(-c3ccc(C#N)cc3)cc12)c1ccccc1 | 333 to 336
COc1ccc(NC(=O)c2ccc(Cl)c(Cl)c2)cc1[N+](=O)[O-] | 215 to 218
CSc1c(C(Cc2ccc(Cl)cc2)C(=O)O)ccc2c3ccccc3n(Cc3ccc(Cl)cc3)c12 (stereo unspecified) | 104 to 107
CC(N)c1ccc(C(=O)O)cc1 (stereo unspecified) | > 300
CN1CNC(=S)N(c2ccc([N+](=O)[O-])cc2)C1 | 170 to 172
O=C(Cc1csc(-c2cnccn2)n1)NC1CCN(Cc2ccc(Cl)c(Cl)c2)CC1 | 186 to 189
COc1ccc(Cl)cc1C(=O)NCCc1ccc(-c2ccc(S(C)(=O)=O)cc2)c(S(N)(=O)=O)c1 | 114
COc1ccc(C(=O)NCCCCOc2ccc(-n3ccnc3)cc2)cc1 | 125 to 126
CCCCOc1cc2cc(CO)c(CO)c(-c3ccnc(Cl)c3)c2cc1OC | 93 to 97
COc1ccccc1N1CCN(CC(O)COc2cc(C)c(OCc3ccccc3)c(C)c2)CC1 (stereo unspecified) | 93 to 94
Cn1nc(S(=O)(=O)c2ccccc2)c2cc(N3CCN(Cc4ccccc4)CC3)ccc21 | 195 to 197
CCC[C@H]1CC[C@H](CCc2cc(F)c(C#N)c(F)c2)CC1 | 27.3
COc1ccc2c(=O)c3ccc(O)c(OC)c3oc2c1 | 120 to 121
COCOc1c(C)cc(-c2ccc(C(=O)O)cc2)cc1C | 153 to 154
CC(C)(C)OC(=O)Nc1ccc(-c2ccco2)cc1[N+](=O)[O-] | 169 to 172
CC12CCC3C(CC=C4CC(O[Si](C)(C)C)CCC43C)C1CCC2=O (stereo unspecified) | 173 to 174
CC1(C)CCC(C)(C)c2cc(C#Cc3ccc(C(N)=O)cc3)ccc21 | 220 to 223
Cc1cc(C)cc(NCc2ccc3nc(NCC(O)CO)n(Cc4nc(C)ccc4O)c3c2)c1 (stereo unspecified) | 128
O=C1NC(=O)C(=Cc2ccc3c(c2)CN(c2ccccn2)CCO3)S1 | 260 to 261

SMILES | melting point [°C]
O=[N+]([O-])c1cc(I)ccc1Nc1cccc(-c2cncnc2)c1 | 214 to 217
Cc1ncsc1C(O)c1cccc(N(C)C)c1 (stereo unspecified) | 135 to 138
CCOC(=O)c1csc(-n2ccnc2)n1 | 107 to 109
CCCOc1ccc2c(c1)C(=O)C[C@H]2c1ccc2c(c1)OCO2 | 63 to 65
COc1cc(OC)c(C(=O)CBr)cc1C(=O)O | 236
N=C(N)c1ccc2c(c1)N(CC(=O)c1ccc(Br)cc1)C(=O)CN2 | 145 to 150
Cc1ccc(-c2cc(F)cc3c2NC(CN)CO3)c(C(F)(F)F)c1 (stereo unspecified) | 86
O=C(O)c1ccc(OCc2ccccc2)cc1OCc1ccccc1 | 123 to 124
N=C(N)NCCCc1nccs1 | 160 to 163
CCOC(=O)C1=NN(c2cccc3ccccc23)C(C(=O)OCC)=NN1c1ccccc1 | 124 to 125
Cc1cc(NS(=O)(=O)c2cc(C3(O)CCC(=O)N3C)ccc2Cl)cc(C(C)(C)C)c1O (stereo unspecified) | 120
Cc1cc(S(C)(=O)=O)ccc1C(=O)c1c(S(C)=O)noc1C1CC1 (stereo unspecified) | 142
COc1ccc(-c2nc(C(=O)OC(C)(C)C)c(-c3ccncc3)[nH]2)cc1 | 211 to 212
O=C(NCCO)/C(=C/c1ccc(Cl)cc1)NC(=O)c1ccc(OCCc2ccc(F)cc2)cc1 | 60 to 63
CCc1[nH]c2ccc(OC)cc2c1/C=C/C(=O)c1ccncc1 | 214 to 215
OCc1cnoc1-c1ccc(Cl)c(Cl)c1 | 101 to 102
CC(C)(C)NC(=O)C1CCCN1C(=O)C(O)C(Cc1ccccc1)NC(=O)C(CC(N)=O)NC(=O)COc1cccc(NC(=O)OCc2ccccc2)c1 (stereo unspecified) | 107 to 117
Clc1cc(Cl)c(Cl)c(CBr)c1 | 40 to 42
CC1(C)CCC(C)(C)c2cc(O)ccc21 | 142
Nc1cc(O)ccc1CCCl | 96 to 100
COc1ccc(C=Cc2nc3c([nH]2)c(=O)n(C)c(=O)n3C)cc1 | > 320
CCCC1NS(=O)(=O)N(CCN2CC=C(c3c[nH]c4cc(F)ccc34)CC2)c2ccccc21 (stereo unspecified) | 196 to 198
COc1cccn2c(=O)c3c(nc12)C(=Cc1ccccc1)CC3 | 212 to 214
COc1cc(Nc2c(C#N)cnc3sccc23)c(Cl)cc1Cl | 197 to 199
COc1ccc(C(=O)c2ccc(OCCBr)cc2)cc1 | 112 to 113
O=C(O)Cc1c(C(=O)c2ccc(-c3nccs3)cc2)[nH]c2cc(Cl)ccc12 | 230 to 233

SMILES | melting point [°C]
CC(CCCc1ccccc1)(C(=O)O)c1ccc(CCCNC(=O)c2ccc(-c3ccccn3)cc2)cc1 (stereo unspecified) | 118 to 119
CNC(=O)COc1cccc(CCNC(=O)/C=C/c2cccnc2)c1 | 140 to 141
NC(=O)CC(C(N)=O)n1cccc1 (stereo unspecified) | 158 to 165
Fc1ccc(F)c(CN2CCNc3ncc(-c4ccc(N5CCOCC5)nc4)cc32)c1 | 206 to 207
O=C(O)c1ccc(-c2ncc(-c3ccc(Cl)cc3)s2)cc1 | > 300
COc1ccc(-c2cc(C(N)(C(F)(F)F)C(F)(F)F)sc2-c2ccc(OC)cc2)cc1 | 87 to 90
COc1cc(C(=O)c2cccnc2)cc([N+](=O)[O-])c1O | 193
CCOC(=O)C(=O)c1c(C(=O)OCC)n(C)c2cc(Cl)ccc12 | 94 to 95
Cc1ccc(C(=O)c2cc(-c3ccc(Cl)cc3)c(N3CCOCC3)s2)cc1 | 190
CSC(NCc1ccc(N)cc1)=C(C#N)C#N | 100 to 102
CC(C)(C)OC(=O)[C@H](Cc1ccc(O)cc1)NC(=O)c1c(F)cccc1F | 145 to 148
CCCc1c(OCCCOc2ccc(Br)cc2)ccc2c1OC(CCC(=O)O)(CCC(=O)O)CC2=O | 136
CC(=Cc1ccc(Cl)cc1Cl)[N+](=O)[O-] | 75
Cc1c(Cl)cccc1S(=O)(=O)Nc1ccc2ncccc2c1 | 228
CSc1ccc(NC(=N)c2ccc(Cl)cc2)cc1 | 148 to 150
CCCCC(=O)Nc1cccc([N+](=O)[O-])c1 | 65
COc1ccc(CCC(=O)c2c(O)cc(OC)cc2OC)cc1 | 110
COc1ccc(C(=O)Nc2ncnc3c2ncn3[C@H]2CC[C@H](CC(=O)O)C[C@@H]2NC(=O)OC(C)(C)C)cc1 | 238 to 239
CN(C)Cc1cccc(-c2cc3c(Nc4ccc(F)c(Cl)c4)ncnc3[nH]2)c1 | 218 to 220
COc1ccc(-c2nnc3c4ccccc4c(Cl)nn23)cc1 | 192 to 193
Cc1ccc(S(=O)(=O)O[C@@H]2C[C@@H](CCl)N(S(=O)(=O)c3ccc(C)cc3)C2)cc1 | 145 to 146
COc1ccccc1CNc1ccc2cc(Nc3nccc(C)n3)ccc2n1 | 125
Cc1cc2c(cc1Cl)C(NCCC1CCN(C(=O)OC(C)(C)C)CC1)(c1ccccc1Cl)C(=O)N2 (stereo unspecified) | 245 to 248
CS(=O)(=O)Nc1cc2c(c(C(=O)O)c1)NCCCC2 | 204 to 205
CC(C)(C)[N+]([O-])=Cc1c[nH]c(-c2ccccc2)n1 | 209 to 210
OCC1OC(n2cnc3c(NC4CCCc5ccccc54)ncnc32)C(O)C1O (stereo unspecified) | 95.5 to 100

SMILES | melting point [°C]
Cc1cc(C=O)c2cccc(OCc3ccccc3)c2n1 | 129
CC1Cc2c(C#N)cccc2C1=O (stereo unspecified) | 101 to 102
CCNC(=O)C1CC(=O)N(Cc2ccccc2)C1 (stereo unspecified) | 97 to 99
CC(=O)N1CC(C)(C)c2cc(OC(C)C)ccc21 | 86 to 87
N#CN=C(NCCC[C@@H](NC(=O)C(c1ccccc1)c1ccccc1)C(=O)NCc1ccc(O)cc1)Oc1ccccc1 | 110 to 112
COc1ccc(NCc2cc(OC)c(OC)c(OC)c2)cc1 | 73 to 74
CCCCCCCCCCc1nc(N(C)C)nc(OC)c1Br | 45 to 46
CC(C)(C)OC(=O)NC(Cc1ccccc1)C(=O)Oc1ccc(/C=c2\[nH]c(=O)/c(=C/c3ccccc3)[nH]c2=O)nc1 (stereo unspecified) | 188
CCOC(=O)c1cc(SCc2ccccc2)c(Cl)c(S(N)(=O)=O)c1 | 182
CN(C)C1=NS(=O)(=O)c2ccccc21 | 323 to 324
COC(=O)c1cc(OC)c(OCc2ccccc2)c(C23CC4CC(CC(C4)C2)C3)c1 | 229
CN(C)c1ccc2ccc(=O)oc2c1 | 161
O=C(c1ccc(OCCn2ccnc2)cc1)N1CCOCC1 | 109 to 111
CCCC(=O)NC1Cc2ccc(-c3ccc(=O)[nH]n3)cc2C1 (stereo unspecified) | 228 to 229
O=C(Nc1c[nH]nc1C(=O)NCc1ccccc1)c1ccccn1 | 204 to 205
CC1(C(=O)O)CCc2c(-c3ccc(Cl)cc3)noc2C1 (stereo unspecified) | 169 to 170
COc1ccc(-c2nn(Cc3ccc(Cl)cc3)c(=O)cc2-c2ccncc2)cc1 | 175 to 176
CC(C)N1Cc2cc(CO)ccc2N(CCN2CC=C(c3c[nH]c4cc(F)ccc34)CC2)S1(=O)=O | 113 to 115
Cc1ccccc1COC(C)(CO)CO | 90 to 91
Clc1cccc(-c2cnccn2)c1 | 53 to 54
CC1(C)SC(c2ccc3c(c2)CCC3)NC1C(=O)O (stereo unspecified) | 140 to 142
NS(=O)(=O)c1ccc(-c2c(COCCCO)n[nH]c2-c2ccc(Cl)cc2)cc1 | 96
CCCc1nc2c(N)nc3cc(OCCN(CCOc4ccc5c(c4)nc(N)c4nc(CCC)sc45)C(N)=O)ccc3c2s1 | 213 to 216
